In patent US7019014B2, “Process for producing anticancer agent LL-D45042” (Wyeth Holdings Corporation, priority 2003, dated 2006):
Converted amounts (≈) assume the structure as drawn.

Columns and labels:
[1] = tested on: breast cancer line MDA435; assay: In vitro anticancer test: growth inhibition in MDA435 tumour cells; type: cell-based; conditions: no PTEN mutation, multi-dose testing
Protocol: (§1) The in vitro anticancer activity of LL-D45042 is determined by measuring the concentration of compound required to inhibit the growth of 50% of cells in two tumour cell lines. […] The elevated sensitivity is due to its genetic mutation in the PTEN tumor suppressor gene leading to constitutive activation of mTOR signaling pathway. […] LL-D45042 is also evaluated in a binding assay of FKBP12, a cellular receptor of rapamycin, to determine its binding affinity. The results are given in Table 2, with IC50's reported in units of ng/mL.
(§2) These determinations are made by multi-dose testing of LL-D45042 and direct comparisons to the reference samples.

brain cancer line U87MG [2] = assay: In vitro anticancer test: growth inhibition in U87MG tumour cells; type: cell-based; conditions: Homo sapiens, U-87 MG, PTEN mutant, multi-dose testing
Protocol: as §1, §2

FKBP12 = FKBP12 (Homo sapiens, UniProt P62942); assay: FKBP12 binding assay; conditions: FKBP12, a cellular receptor of rapamycin; read-out: Protein Binding, FKBP (IC50) (converted)
Sequence of FKBP12 (P62942 whole entry, species assumed): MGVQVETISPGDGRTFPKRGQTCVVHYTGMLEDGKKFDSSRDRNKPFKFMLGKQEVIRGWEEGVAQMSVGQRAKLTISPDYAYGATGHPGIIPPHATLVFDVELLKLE
Protocol: as §1, §2

brain cancer line U87MG [3] = conditions: previously established; PTEN mutation, constitutive mTOR activation; cited from earlier work
[4] = tested on: breast cancer line MDA435; conditions: previously established; no PTEN mutation; cited from earlier work

Row | IC50 [1] | IC50 (brain cancer line U87MG [2]) | IC50 (FKBP12) | Compound | Sensitivity of U87MG to growth inhibition (brain cancer line U87MG [3]) | Sensitivity of MDA435 to growth inhibition [4]
1 | > 1 µg/mL | 0.035 µg/mL (≈ 0.0401 µM) | 401 nM | CO[C@@H]1C[C@H](C[C@@H](C)[C@@H]2CC(=O)[C@H](C)/C=C(\C)[C@@H](O)[C@@H](O)C(=O)[C@H](C)C[C@H](C)/C=C/C=C/C=C(\C)[C@@H](O)C[C@@H]3CC[C@@H](C)[C@](O)(CC(=O)N4CCCC[C@H]4C(=O)O2)O3)CC[C@H]1O [LL-D45042] | – | –
2 | – | – | – | CO[C@H]1C[C@@H]2CC[C@@H](C)[C@@](O)(O2)C(=O)C(=O)N2CCCC[C@H]2C(=O)O[C@H]([C@H](C)C[C@@H]2CC[C@@H](O)[C@H](OC)C2)CC(=O)[C@H](C)/C=C(\C)[C@@H](O)[C@@H](OC)C(=O)[C@H](C)C[C@H](C)/C=C/C=C/C=C/1C [rapamycin, Rapamycin] | highly sensitive | rapamycin-resistant phenotype
